According to patent US20120149708A1, “MODULATORS OF VIRAL TRANSCRIPTION, AND METHODS AND COMPOSITIONS THEREWITH” (George Mason University, priority 2010, published 2012):

System: TAR microRNA
Experiment: RNase protection assay for TAR and TAR miRNA in TNF treated ACH2 cells
Format: cell-based, HIV-1
Conditions: CR8#13 50 nm compared to Flavopiridol 50 nm, 48 hrs
From the text: Ten micrograms of total RNA from TNF treated CEM (lane 1) and TNF treated ACH2 cells (lanes 2-6) were hybridized to a radiolabeled TAR 5′ probe and then treated with RNase A. Arrows indicate the probe protected by TAR at 27 nucleotides and the probe protected by a TAR miRNA at approximately 22 nt. Cyc202 concentration at 500 nm, CR8 at 100 nm, CR8#13 at 50 nm, and Flavopiridol at 50 nm were used for these experiments.
Total RNA was extracted from TNF-treated CEM and ACH2 cells follow by drug treatment with Cyc202 (500 nm), CR8 ([…]), CR8#13 (50 nm), and Flavopiridol (50 nm) for 48 hrs using Trizol reagent (Invitrogen). RNase protection assays were performed as previously described (Klase et al, 2007).
RNA polymerase II associated with HIV-1 promoter, however, is phosphorylated on both Ser2 and 5 in the presence of Tat (see Zhou et al, 2004). In order to ascertain whether or not cells treated with CDK inhibitors according to the present invention produce additional TAR derived miRNA, the inevntor utilized RNase protection assays to detect small RNA fragments corresponding to the TAR sequence.
Briefly, a probe complementary to the entire length of the 5′ portion of the TAR stem loop was designed, which would detect the generation of ˜21 nt RNAs from any position within that sequence. […]

Q: How did the “levels of TAR and miTAR RNA (RPA)” value turn out when `CC(C)c1cnn2c(NCc3ccc(-c4ccccn4)cc3)nc(NC[C@H](O)CO)nc12.O=C(O)/C=C/C(=O)O` [BJFP1154] was run?
A: Its value is “Higher levels of TAR and miTAR RNA”.
